Assay results taken from patent US8962793B2, “ErbB interface peptidomimetics and methods of use thereof” (The Trustees of the University of Pennsylvania, priority 2001, dated 2015).
Read-outs that look alike come from different tables or passages of the source. Bridge positions count the residues as written; N and C are the ends. Peptide text beside a SMILES is read from it.

Legend:
[1] = target: T1, erbB3-erbB3 homomerization (Homo sapiens, UniProt P21860); assay: SPR inhibition of HRGβ1-induced binding of ErbB3 to immobilized ErbB3; conditions: peptide 10 μm, ErbB3 300 nm, HRGβ1 5 μM
T1 construct: the ectodomains of erbB receptors were immobilized on the surface chip; erbB3: gift of Dr. Mark A. Lemmon
Procedure: (§1) The effect of cysteine-knot mimetics on receptor self-associations, was examined using a Biacore assay in which the ectodomains of erbB receptors were immobilized on the surface chip and the ectodomain of erbB3 was injected at 300 nM concentrations either alone or in the presence of 5 μM hereglunin HRGβ1.
(§2) The effect of the erbB peptides on heregulin-induced receptor self-associations was studied by preinjecting them at 10 μM followed by injection of erbB3-HRGβ1 (FIG. 4; 1B, 2B, 3B).
(§3) Binding experiments were performed with the surface plasmon resonance based biosensor instrument Biacore 3000 (Biacore AB, Uppsala, Sweden), at 25° C. […] (erbB2) and Dr. Mark A. Lemmon, Department of Biochemistry and Biophysics, University of Pennsylvania School of Medicine (erbB1 and erbB3). Immobilization of the erbB receptors in the sensor surface was performed following the standard amine coupling procedure according to manufacturer's instructions. Briefly, 35 μl of a solution containing 0.2 M N-ethyl-N′-(dimethylaminopropyl) carbodiimide (EDC) and 0.05 M N-hydroxysuccinimide (NHS), were injected at a flow rate of 5 μl/min to activate carboxyl groups on the sensor chip surface. Receptors (40 ng/ml in 10 mM NaOAc buffer, pH 5.0) were flowed over the chip surface at a flow rate of 20 μl/min until the desired level bound protein was reached. Unreacted protein was washed out and unreacted activated groups were blocked by the injection of 35 μl of 1 M ethanolamine at 5 μl/min. […] A reference surface was generated simultaneously under the same conditions but without receptor injection and used as a blank to correct for instrument and buffer artifacts. Peptides were injected at variable concentrations at 20 μl/min flow rate and binding to the receptors immobilized on the chip was monitored in real time. Each sensorgram consists of an association phase (first 240 s), reflecting binding of the injected peptide to the receptor, followed by a dissociation phase (300 s), during which the running buffer is passed over the chip and the bound peptide is being washed off the receptor surface.

[2] = target: T2, erbB3-erbB1 heteromerization (Homo sapiens, UniProt P00533); assay: SPR inhibition of HRGβ1-induced binding of ErbB3 to immobilized ErbB1; conditions: peptide 10 μm, ErbB3 300 nm, HRGβ1 5 μM
T2 construct: the ectodomains of erbB receptors were immobilized on the surface chip; erbB1 and erbB3: gift of Dr. Mark A. Lemmon
Procedure: as §1, §2, §3

ErbB2 = target: T3, ErbB2 (Homo sapiens, UniProt P04626); assay: Surface plasmon resonance (Biacore) binding to immobilized ErbB2 extracellular domain
T3 construct: provided by Dr. Che Law, Xcyte Therapeutics, Seattle
Procedure: The designed erbB peptides were tested for binding to erbB receptors using surface plasmon resonance (Biacore) technology (described supra) using soluble erbB-1 and erbB-3. The response was plotted in real time in the form of sensorgram curves. Dissociation constants (Kd) were determined as described (Park, et al. 2000, Nat. Biotechnol. 18:194-198).
A sensorgram for binding of B2-S22-APE peptide to erbB receptors immobilized on the sensor chip was performed.
as §3

ErbB1 = target: T4, ErbB1 (Homo sapiens, UniProt P00533); assay: Surface plasmon resonance (Biacore) binding to immobilized ErbB1 extracellular domain
T4 construct: gift of Dr. Mark A. Lemmon, University of Pennsylvania School of Medicine
Procedure: (§4) The designed erbB peptides were tested for binding to erbB receptors using surface plasmon resonance (Biacore) technology (described supra) using soluble erbB-1 and erbB-3. The response was plotted in real time in the form of sensorgram curves.
as §3

ErbB3 = target: T5, ErbB3 (Homo sapiens, UniProt P21860); assay: Surface plasmon resonance (Biacore) binding to immobilized ErbB3 extracellular domain
T5 construct: gift of Dr. Mark A. Lemmon, University of Pennsylvania School of Medicine
Procedure: as §4, §3

[3] = target: T6, erbB3-erbB2 heteromerization (Homo sapiens, UniProt P04626); assay: SPR inhibition of HRGβ1-induced binding of ErbB3 to immobilized ErbB2; conditions: peptide 10 μm, ErbB3 300 nm, HRGβ1 5 μM
T6 construct: the ectodomains of erbB receptors were immobilized on the surface chip; erbB2: Dr. Che Law, Xcyte Therapeutics; erbB3: Dr. Mark A. Lemmon
Procedure: as §1, §2, §3

erbB2-SbdIV = target: T7, erbB2-SbdIV (Homo sapiens, UniProt P04626); assay: Surface plasmon resonance binding to immobilized recombinant erbB2-SbdIV
T7 construct: The DNA fragment encoding the subdomain IV of erbB2 (erbB2-SbdIV) was generated by polymerase chain reaction; GST (N); made in house; host or cells: Escherichia coli BL-21 (DE3), vector pGEX-5X-3
Text: Since erbB peptides are derived from subdomain IV of different erbB receptors, this fact indicates direct involvement of subdomain IV in receptor-receptor interactions between the members of erbB receptor family.
The DNA fragment encoding the subdomain IV of erbB2 (erbB2-SbdIV) was generated by polymerase chain reaction. The upstream primer was 5′-[…]-3′ [SEQ ID NO: 44] and the downstream primer was 5′-[…]-3′. [SEQ ID NO: 45] These two primers were designed to include BamHI and Not I restriction sites, respectively, for inframe insertion into the BamHI/Not I linearized pGEX-5X-3 vector. Recombinant vector was used to infect Escherichia coli BL-21 (DE3). 100 ml of the 2XYT medium were inoculated with 10 ml of the overnight culture and grown at 37° C. until the OD600 of 0.4-0.5 was reached. IPTG was added to the medium at the final concentration of 0.1 mM and grown for 2 hrs. The cells were spun down by centrifugation at 4,000 g for 10 min and resuspended with 5 ml of cold PBS (with DTT, PMSF and aprotinin at the final concentration of 5 mM, 1 mM and 1 μg/ml respectively). After sonication on ice, Triton X-100 was added to the final concentration of 1% and the solution was rocked at 4° C. for 1 hr and centrifuged at 10,000 g for 10 min. 100 μl of glutathione sepharose bead was then added to the supernatant. It was rocked at 4° C. for 2-4 hrs, centrifuged and washed three times with PBS. 100 μl elution buffer was added followed by rotation for 10 min at room temperature, centrifugation at 300 g for 1 min and collection of the supernatant. Elutions were repeated three times and combined.
Binding experiments were performed with the surface plasmon resonance based biosensor instrument Biacore 3000 (Biacore AB, Uppsala, Sweden), at 25° C. Recombinant purified erbB receptors were provided by Dr. Che Law, Xcyte Therapeutics, Seattle, Wash. […] Peptides were injected at variable concentrations at 20 μl/min flow rate and binding to the receptors immobilized on the chip was monitored in real time. […]

[4] = immobilized extracellular domain, surface plasmon resonance, read-out: KD (μM) ErbB2
[5] = immobilized extracellular domain, surface plasmon resonance, read-out: KD (μM) ErbB1
[6] = immobilized extracellular domain, surface plasmon resonance, read-out: KD (μM) ErbB3
[7] = FIG. 3A, erbB receptors immobilized on the sensor chip, global fitting to 1:1 Langmurian interaction model
[8] = erbB2-SbdIV immobilized on the surface chip, FIG. 3B

T5 sequence (P21860 20-643 limits assumed): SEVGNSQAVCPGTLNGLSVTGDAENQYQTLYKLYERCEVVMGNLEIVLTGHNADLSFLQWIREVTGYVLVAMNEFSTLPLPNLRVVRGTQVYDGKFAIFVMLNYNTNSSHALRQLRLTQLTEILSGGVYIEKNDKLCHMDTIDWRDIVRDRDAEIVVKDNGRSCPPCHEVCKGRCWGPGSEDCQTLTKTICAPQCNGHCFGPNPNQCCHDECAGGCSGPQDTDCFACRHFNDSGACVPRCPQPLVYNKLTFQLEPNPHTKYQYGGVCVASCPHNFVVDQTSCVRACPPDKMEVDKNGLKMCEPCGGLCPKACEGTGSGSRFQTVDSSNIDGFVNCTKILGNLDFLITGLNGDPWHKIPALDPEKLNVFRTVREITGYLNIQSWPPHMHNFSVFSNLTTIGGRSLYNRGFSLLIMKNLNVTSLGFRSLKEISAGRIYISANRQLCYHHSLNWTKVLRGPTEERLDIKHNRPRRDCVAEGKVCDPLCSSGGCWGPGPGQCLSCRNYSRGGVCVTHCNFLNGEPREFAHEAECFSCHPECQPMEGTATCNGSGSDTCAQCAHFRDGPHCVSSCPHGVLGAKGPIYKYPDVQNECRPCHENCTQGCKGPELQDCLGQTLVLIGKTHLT
T1 sequence (P21860 20-643 limits assumed): as above
T2 sequence (P00533 25-645 limits assumed, one chain of several): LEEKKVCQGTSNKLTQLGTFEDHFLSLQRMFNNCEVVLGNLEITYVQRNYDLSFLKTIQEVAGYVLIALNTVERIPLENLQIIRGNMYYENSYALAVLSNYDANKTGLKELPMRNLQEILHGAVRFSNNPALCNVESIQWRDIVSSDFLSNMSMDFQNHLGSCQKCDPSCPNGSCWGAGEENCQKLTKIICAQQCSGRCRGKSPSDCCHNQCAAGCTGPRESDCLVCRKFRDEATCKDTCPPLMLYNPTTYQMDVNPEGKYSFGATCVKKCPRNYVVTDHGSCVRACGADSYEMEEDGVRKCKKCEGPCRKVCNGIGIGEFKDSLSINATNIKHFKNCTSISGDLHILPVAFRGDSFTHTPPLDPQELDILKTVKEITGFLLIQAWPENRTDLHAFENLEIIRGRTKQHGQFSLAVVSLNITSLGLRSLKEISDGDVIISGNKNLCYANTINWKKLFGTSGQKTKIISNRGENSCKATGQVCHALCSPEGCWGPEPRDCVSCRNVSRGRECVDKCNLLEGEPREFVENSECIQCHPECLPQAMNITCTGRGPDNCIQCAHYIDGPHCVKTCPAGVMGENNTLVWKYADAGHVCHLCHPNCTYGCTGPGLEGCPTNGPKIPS
T4 sequence (P00533 25-645 limits assumed): as the sequence (P00533 25-645 limits assumed, one chain of several) above
T3 sequence (P04626 23-652 limits assumed): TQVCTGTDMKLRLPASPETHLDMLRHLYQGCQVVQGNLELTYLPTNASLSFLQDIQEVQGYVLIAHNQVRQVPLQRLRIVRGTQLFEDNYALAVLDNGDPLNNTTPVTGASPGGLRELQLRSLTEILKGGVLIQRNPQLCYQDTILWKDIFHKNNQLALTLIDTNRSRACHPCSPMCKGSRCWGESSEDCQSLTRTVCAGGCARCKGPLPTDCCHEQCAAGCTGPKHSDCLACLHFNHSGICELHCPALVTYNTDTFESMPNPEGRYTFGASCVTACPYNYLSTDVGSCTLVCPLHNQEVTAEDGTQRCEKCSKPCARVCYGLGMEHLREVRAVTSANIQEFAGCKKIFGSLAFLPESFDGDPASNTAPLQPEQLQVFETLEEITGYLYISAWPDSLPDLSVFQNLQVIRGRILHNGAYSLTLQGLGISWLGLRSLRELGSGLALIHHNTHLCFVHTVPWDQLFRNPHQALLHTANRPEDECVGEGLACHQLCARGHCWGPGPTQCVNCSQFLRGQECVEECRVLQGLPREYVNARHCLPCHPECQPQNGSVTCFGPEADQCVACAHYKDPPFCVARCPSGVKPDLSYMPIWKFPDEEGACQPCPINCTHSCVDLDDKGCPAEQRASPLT
T6 sequence (P04626 23-652 limits assumed, one chain of several): as the sequence (P04626 23-652 limits assumed) above
T7 sequence (P04626 509-657): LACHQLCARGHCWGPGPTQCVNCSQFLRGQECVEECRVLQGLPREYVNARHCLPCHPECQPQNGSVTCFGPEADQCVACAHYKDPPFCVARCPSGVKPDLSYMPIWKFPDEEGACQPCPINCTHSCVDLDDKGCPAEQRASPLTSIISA

SMILES	Percent Inhibition ErbB3 [1] [%]	Percent Inhibition ErbB1 [2] [%]	Kd (ErbB2; [4]) [µM]	Kd (ErbB1; [5]) [µM]	Kd (ErbB3; [6]) [µM]	Percent Inhibition ErbB2 [3] [%]	koff (ErbB2; [7]) [s⁻¹]	kon (ErbB2; [7]) [M⁻¹ s⁻¹]	Kd (ErbB2; KD (μM) ErbB2, immobilized extracellular domain, surface plasmon resonance) [µM]	Kd (ErbB2; dissociation constant (Kd), FIG. 3A, koff/kon ratio) [µM]	Kd (erbB2-SbdIV) [µM]	koff (erbB2-SbdIV; [8]) [s⁻¹]	kon (erbB2-SbdIV; [8]) [M⁻¹ s⁻¹]	Kd (ErbB1) [µM]	Kd (ErbB3) [µM]
CC[C@H](C)[C@@H]1NC(=O)[C@@H]2CCCN2C(=O)[C@@H](NC(=O)[C@@H](N)Cc2ccc(O)cc2)CSSC[C@@H](C(=O)N[C@@H](Cc2ccc(O)cc2)C(N)=O)NC(=O)[C@H](CCC(=O)O)NC(=O)[C@H](CCC(=O)O)NC(=O)[C@H](CC(=O)O)NC(=O)[C@@H]2CCCN2C(=O)[C@H](Cc2ccccc2)NC(=O)[C@H](CCCCN)NC(=O)[C@H](Cc2c[nH]c3ccccc23)NC1=O [B2-S22-APE] (H-YCPIWKFPDEECY-NH2; disulfide 2-12)	42.7	80.3				51.1	0.000685	3240	1.53	0.21	1.89	0.00307	1620	0.21	1.4
CC[C@H](C)[C@@H]1NC(=O)[C@H](Cc2ccc(O)cc2)NC(=O)[C@@H](NC(=O)[C@@H](N)Cc2ccccc2)CSSC[C@@H](C(=O)N[C@@H](Cc2ccc(O)cc2)C(N)=O)NC(=O)[C@H](CCC(N)=O)NC(=O)[C@H](CC(=O)O)NC(=O)[C@H](CCC(=O)O)NC(=O)[C@H](C(C)C)NC(=O)[C@H](CCC(=O)O)NC(=O)CNC1=O [CD4-G, reference compound] (H-FCYIGEVEDQCY-NH2; disulfide 2-11)	3.1	2.4	> 1000	> 1000	> 1000	−1.2									
CC[C@H](C)[C@@H]1NC(=O)[C@H](Cc2ccccc2)NC(=O)[C@@H](NC(=O)[C@@H](N)Cc2ccc(O)cc2)CSSC[C@@H](C(=O)N[C@@H](Cc2ccc(O)cc2)C(N)=O)NC(=O)[C@H](CC(=O)O)NC(=O)[C@@H]2CCCN2C(=O)[C@H](CC(=O)O)NC(=O)[C@H](C)NC(=O)[C@H](Cc2ccc(O)cc2)NC(=O)[C@H](CCCCN)NC(=O)[C@H](Cc2ccccc2)NC1=O [B4-S22-AFD] (H-YCFIFKYADPDCY-NH2; disulfide 2-12)	72.8	60.3	0.639	0.583	0.394	54.2									

The remaining compounds from weak to strong by Kd (ErbB2; [4]), led by results:

Percent Inhibition ErbB3 [1] [%]	Percent Inhibition ErbB1 [2] [%]	Kd (ErbB2; [4]) [µM]	Kd (ErbB1; [5]) [µM]	Kd (ErbB3; [6]) [µM]	Percent Inhibition ErbB2 [3] [%]	SMILES	koff (ErbB2; [7]) [s⁻¹]	kon (ErbB2; [7]) [M⁻¹ s⁻¹]	Kd (ErbB2; KD (μM) ErbB2, immobilized extracellular domain, surface plasmon resonance) [µM]	Kd (ErbB2; dissociation constant (Kd), FIG. 3A, koff/kon ratio) [µM]	Kd (erbB2-SbdIV) [µM]	koff (erbB2-SbdIV; [8]) [s⁻¹]	kon (erbB2-SbdIV; [8]) [M⁻¹ s⁻¹]	Kd (ErbB1) [µM]	Kd (ErbB3) [µM]
32.4	69.0	0.549	0.472	1.07	58.1	CC[C@H](C)[C@@H]1NC(=O)[C@@H]2CCCN2C(=O)[C@@H](NC(=O)[C@@H](N)Cc2ccc(O)cc2)CSSC[C@@H](C(=O)N[C@@H](Cc2ccc(O)cc2)C(N)=O)NC(=O)[C@H](CCC(N)=O)NC(=O)[C@H](C(C)C)NC(=O)[C@H](CC(=O)O)NC(=O)[C@@H]2CCCN2C(=O)[C@H](Cc2ccc(O)cc2)NC(=O)[C@H](CCCCN)NC(=O)[C@H](Cc2ccc(O)cc2)NC1=O [B3-S22-APQ] (H-YCPIYKYPDVQCY-NH2; disulfide 2-12)									
75.1	65.2	0.371	0.449	0.288	71.4	CC(C)C[C@@H]1NC(=O)[C@@H](NC(=O)[C@@H](N)Cc2ccc(O)cc2)CSSC[C@@H](C(=O)N[C@@H](Cc2ccc(O)cc2)C(N)=O)NC(=O)CNC(=O)[C@H](C)NC(=O)[C@H](CC(=O)O)NC(=O)[C@H](C)NC(=O)[C@H](Cc2ccc(O)cc2)NC(=O)[C@H](CCCCN)NC(=O)[C@H](Cc2c[nH]c3ccccc23)NC(=O)[C@H](C(C)C)NC1=O [B1-S22-ALG] (H-YCLVWKYADAGCY-NH2; disulfide 2-12)									
